# What was measured:
# [1] = test system: Sugen 5416/chronic hypoxia mouse model; assay: Study 3: 6 weeks Sugen5416/chronic hypoxia mouse model of pulmonary hypertension, ultrasound assessment; assay type: in vivo
# Experimental: Eleven to thirteen week old Taconic C57BL/6 mice were used. Mice were separated into treatment groups by weight such that starting body weights were similar among different groups. Cages were selected to either remain at about 21% O2 (normobaric normoxia) or placed into 10% O2 (normobaric hypoxia) chamber (a modified 3′ Semi-Rigid Isolator unit, Charles River) that maintained low O2 levels with adjustment of N2 flow to a steady intake of room air. Mice were administered Sugen5416 (Sigma, Cat#58442; VEGFR inhibitor subcutaneously at 20 mg/kg weekly for 6 weeks) and drugs or saline starting on day 21. A group of mice (n=10) housed in normobaric normoxia cages were subcutaneously administered saline at 5 mL/kg twice per week for three weeks, while mice housed in normobaric hypoxia cages were separated into 5 treatment groups including a group of mice (n=10) subcutaneously treated with saline at 5 mL/kg twice per week for three weeks, a group of mice (n=9) orally administered Bosentan (Sequoia Research Products Cat SRP02325b) at 300 mg/kg every day for three weeks, a group of mice (n=10) subcutaneously administered an isotype control antibody at 25 mg/kg twice per week for three weeks, a group of mice (n=10) subcutaneously treated with the anti-Gremlin-1 antibody at 25 mg/kg twice a week for three weeks, a group of mice (n=9) subcutaneously treated with an anti-Gremlin-1 antibody at 25 mg/kg twice a week for three weeks and orally administered Bosentan at 300 mg/kg every day for three weeks. [table] On the last day of the study, pulmonary artery size and right ventricular function and dimensions were assessed in each mouse using a high frequency ultrasound system (Vevo 2100, VisualSonics). For the assessment, mice were anesthetized (with 1.5% isoflurane at a rate of 1.0 cc/mL of medical grade air) and their temperature was monitored with a rectal temperature probe and held at approximately 37° C. with a heated platform (MouseMonitorS, Indus Instruments) and a warming lamp. Both brightness-mode (B-mode) and motion-mode (M-mode) imaging were used. B-mode imaging of the mouse heart in cross-section was used to determine pulmonary artery cross-sectional area (PA CSA) at the level of the pulmonary valve. M-mode imaging was used to determine the pulsed wave velocity time integral (VTI), which is derived from the area under the curve of representative Doppler tracings of blood flow through the pulmonary artery. Right ventricular stroke volume (RV SV) was calculated from the product of PA CSA and VTI. Right ventricular cardiac output (RV CO) was calculated from the product of SV and heart rate (HR). M-mode imaging was used to determine right ventricular free wall (RVFW) thickness during diastole and systole. Animals were returned to their home cages before right ventricular pressure assessment.
# [2] = test system: chronic hypoxia-induced pulmonary arterial hypertension mouse model; assay: Study 1: 4 week chronic hypoxia mouse model of pulmonary arterial hypertension, ultrasound assessment; assay type: in vivo; conditions: study not given
# Text: For both studies, eleven to thirteen-week-old Taconic C57BL/6 mice were used. Mice were separated into treatment groups by weight such that starting body weights were similar among different groups. Cages were selected to either remain at about 21% O2 (normobaric normoxia) or placed into a 10% O2 (normobaric hypoxia) chamber (a modified 3′ Semi-Rigid Isolator unit, Charles River) that maintained low O2 levels with adjustment of N2 flow to a steady intake of room air.
# For the first study (Study 1), mice were administered drugs or saline starting on day 14. […]
# On the last day of each study, pulmonary artery size and right ventricular function and dimensions were assessed in each mouse using a high frequency ultrasound system (Vevo 2100, VisualSonics). For the assessment, mice were anesthetized (with 1.5% isoflurane at a rate of 1.0 cc/mL of medical grade air) and their temperature was monitored with a rectal temperature probe and held at approximately 37° C. with a heated platform (MouseMonitorS, Indus Instruments) and a warming lamp. […] Right ventricular stroke volume (RV SV) was calculated from the product of PA CSA and VTI. Right ventricular cardiac output (RV CO) was calculated from the product of SV and heart rate (HR). […]
# [3] = Study 3, normobaric hypoxia + Sugen5416 6 weeks, 300 mg/kg PO daily from day 21
Molecule,"PA CSA greater than hypoxic saline-treated group ([1]; Study 3, Sugen5416/hypoxia, 300 mg/kg PO daily, significant) [%]","Heart rate (Ave ± SEM) [1, 3] [beats/min]","PA CSA (Ave ± SEM) [1, 3]","Right Ventricular cardiac output (Ave ± SEM) [1, 3]","Stroke Volume (Ave ± SEM) [1, 3]","Pulmonary artery size (cross-sectional area), result in words ([2]; FIG. 1A legend)","Right ventricular stroke volume, result in words ([2]; FIG. 1B legend)"
COc1ccccc1Oc1c(NS(=O)(=O)c2ccc(C(C)(C)C)cc2)nc(-c2ncccn2)nc1OCCO [Bosentan],~43,509.7 ± 18.9,1.724 ± 0.074^%%% mm^2,17.81 ± 1.46^%% ml/min,35.51 ± 3.22^%% ul,,
"H4H6245P: fully human anti-GREM1 antibody, HCVR/LCVR SEQ ID NOs 434/442; relation to H4H6245P2 not stated (antibody, V domains shown) VH: EVQLVESGGGLVQPGGSLRLSCAASGFTFNSFWMSWVRQAPGKGLEWVANIKQDGSEKYYVDSVKGRFTISRDNAKNSVYLQMNSLRAEDTAVYYCARDLVTSFDYWGQGTLVTVSS VL: DIQMTQSPSSLSASVGDRVTITCQASQDINNYLNWYQQKPGKAPKLLIYDASYLETGVPSGFSGSGSGTDFTFTISSLQPEDIATYYCQQYDSLPYTFGQGTKLEIK",,,,,,near normoxic levels,near normoxic levels

# Source: patent US20180057580A1, “ANTI-GREMLIN-1 (GREM1) ANTIBODIES AND METHODS OF USE THEREOF FOR TREATING PULMONARY ARTERIAL HYPERTENSION” (priority 2016, published 2018)
